The source of these data is patent US20150133492A1, “N-desmethyldauricine, A Novel Autophagic Enhancer for Treatment of Cancers and Neurodegenerative Conditions Thereof” (Macau University of Science and Technology, priority 2013, published 2015).

In one series the test system is LC3. Description: Western blot of autophagic marker LC3 conversion and autophagic flux. The format is cell-based, human. Conditions: HeLa. As to the method: (§1) After N-desmethyldauricine treatments, HeLa cancer cells were harvested and lysed in RIPA buffer (Cell Signaling Technologies Inc. (Beverly, Mass.). The cell lysates were then resolved by SDS-PAGE. After electrophoresis, the proteins from SDS-PAGE were transferred to nitrocellulose membrane which was then blocked with 5% non-fat dried milk for 60 minutes. The membrane was then incubated with LC3 primary antibodies (1:1000) in TBST overnight at 4° C. After that, the membrane was further incubated with HRP-conjugated secondary antibodies for 60 minutes. Finally, protein bands were visualized by using the ECL Western Blotting Detection Reagents (Invitrogen, Paisley, Scotland, UK).
as §1, with “treatments in the presence or absence of lysosomal inhibitor 10·M of E64d/Pepstatin A,” for “treatments,”, “Inc., Beverly,” for “Inc. (Beverly,”, “Finally, protein bands were visualized by using the ECL Western Blotting Detection Reagents (Invitrogen, Paisley, Scotland, UK).” left out

Series [1] deals with Atg7-knockout (Atg7−/−) mouse embryonic fibroblasts. In words: GFP-LC3 puncta in Atg7 deficient MEFs. In kind it is cell-based. Here is the method: GFP-LC3 puncta formation was quantified as previously described^15. In brief, both Atg7 wild-type and deficient mouse embryonic fibroblasts (MEFs) grown on coverslips in a 6-well plate were treated with indicated concentrations of N-desmethyldauricine. Both Atg7 wild-type and deficient mouse embryonic fibroblasts were then fixed in 4% paraformaldehyde for 20 minutes at room temperature and then rinsed with PBS. Slides were mounted with FluorSave™ mounting media (Calbiochem, San Diego, Calif.) and examined by fluorescence microscopy. The number of GFP-positive cells with GFP-LC3 puncta formation was examined under the Nikon ECLIPSE 80i microscope. Representative images were captured with CCD digital camera Spot RT3™ (Diagnostic Instruments, Inc., Melville, N.Y.). To quantify for autophagy, the percentage of cells with punctate GFP-LC3 fluorescence was calculated by counting the number of the cells with punctate GFP-LC3 fluorescence in GFP-positive cells. A minimum of 150 cells from 3 randomly selected fields was scored.

The subject of the next series is HeLa cells. In words: RT2 Profiler autophagy PCR array. In kind it is cell-based, human. An excerpt: For PCR array analysis, N-desmethyldauricine treated HeLa cells were used to obtain the total RNA by Qiagen RNeasy® Mini Kit (Qiagen). The autophagy pathway specific RT-PCR array was used to evaluate the potential alterations of related genes after N-desmethyldauricine treatments in HeLa cells. The autophagy array comprised 87 genes selected based on their involvement in regulating autophagy induction. There were 5 housekeeping genes served as positive controls. Total RNA was reverse transcripted using the RT2 First Strand Kit. Real-time PCR reactions were carried out on ABI 7500 (Applied Biosystems) using the RT2 SYBR® Green qPCR Mastermix (Qiagen) according to manufacturer's instructions. Data analysis was performed using the Qiagen's integrated web-based software package for the PCR Array System, which automatically performs all ΔΔCt based fold-change calculations from raw threshold cycle data.

The test system of series [2] is autophagy deficient cells (Atg7−/−). In words: Annexin V flow cytometry cell death, Atg7 deficient MEFs. Conditions: 10 μM, 24 h. In kind it is cell-based, mouse. Here is the method: Cell viability was measured using an annexin V staining kit (BD Biosciences, San Jose, Calif., USA). Briefly, Atg7 wild-type (Atg7^+/+ or Atg7-wt) and Atg7 deficient (Atg7^−/− or Atg7-ko) mouse embryonic fibroblasts (MEFs) were treated with the 10 μM N-desmethyldauricine for 24 h. Cells were then harvested and analysed by multiparametric flow cytometry using FITC-Annexin V and Propidium iodide staining (BD Biosciences, San Jose, Calif., USA) according to the manufacturer's instructions. Flow cytometry was then carried out using a FACSCalibur flow cytometer (BD Biosciences, San Jose, Calif., USA). Data acquisition and analysis was performed with CellQuest (BD Biosciences, San Jose, Calif., USA). Data were obtained from three independent experiments.
(In general: Flow cytometry measures light scatter and fluorescence of single cells or particles in a stream.)

Series [3] deals with mutant huntingtin overexpressed PC 12 cells. In words: Viability of mutant huntingtin overexpressed PC 12 cells. In kind it is cell-based. Conditions: PC 12, 7.5 μM. Here is the method:
For cell viability assay measured by crystal violet staining, PC-12 cells were incubated in 35 mm disc followed by the addition of N-desmethyldauricine at 7.5 μM for 24 hours. The cells were then incubated with crystal violet for 10 minutes followed by a ddH2O wash. The stained cells image was captured by CCD digital camera Spot RT3™ under the Nikon ECLIPSE 80i microscope with 4× magnification. Cell viability was quantified by dissolving stained cells in 10% acetic acid (200 μL/well). The colorimetric reading of the solute mixture was then determined by spectrophotometer at OD 560 nm. The percentage of cell viability was calculated using the following formula: Cell viability (%)=Cells numbertreated/Cells numberDMSO control×100. Data was obtained from three independent experiments.
PC 12 cells were transfected transiently with EGFP-HDQ23/55/74 (Q23, Q55, Q74) plasmids for 24 hours using Lipofectamine Plus LTX reagent (Invitrogen) according to the manufacturer's protocol. The transfected cells were then treated with N-desmethyldauricine for 24 hours. The removal of mutant huntingtin, (Q23, Q55, Q74) were then quantitated by immunoblotting with antibody against EGFP.

As to `COc1cc2c(cc1OC)[C@@H](Cc1ccc(Oc3cc(C[C@H]4NCCc5cc(OC)c(OC)cc54)ccc3O)cc1)N(C)CC2` [N-desmethyldauricine], the “autophagic marker LC3-II conversion” value with LC3 (western blot) is “induced”. For the same molecule, the “LC3-II conversion in the presence of lysosomal inhibitor” value with LC3 (with E64d/Pepstatin A) is listed as “further enhance”. For the same molecule, the GFP-LC3 puncta formation entry in series [1] is given as “not”. Further, the “gene regulation during autophagy induction” value in the series with HeLa cells was “regulation of a panel of genes, i.e. Igf1, Fam176a, Ulk1, PERK, Cxcr4 and p62”. In addition, the cell death entry in series [2] is recorded as “not”. For the same molecule, in series [3], the “cell viability of mutant huntingtin overexpressed PC 12 cells” value is on record as “enhance the cell viability” and the huntingtin aggregates-mediated cytotoxicity entry is given as “reduce”.
